Structures are written as SMILES.

In turn, `Nc1cc2ccccc2c2ccccc12` had a melting point of 138 °C.
To `CC(=O)Nc1ccc(-c2ccc(NC(C)=O)cc2NC(C)=O)c(NC(C)=O)c1` belongs 283 °C; to `CC(C)C(=NO)C(C)C`, 34 °C; to `CC(C)(C)c1cc2c(O)c(c1)Cc1cc(C(C)(C)C)cc(c1O)Cc1cc(C(C)(C)C)cc(c1O)Cc1cc(C(C)(C)C)cc(c1O)Cc1cc(C(C)(C)C)cc(c1O)Cc1cc(C(C)(C)C)cc(c1O)C2`, 300 °C.
In turn, `c1ccc(O[Si]23OCCN(CCO2)CCO3)cc1` showed a melting point of 218 °C.
The same measure for `O=Cc1cccc(-c2nccs2)c1`: 67 to 68 °C; for `Cn1c(S)nnc1CNC(=O)OC(C)(C)C`: 168 to 169 °C; for `N=C(N)C(F)(F)C(F)(F)C(F)(F)F`: 49 to 51 °C.
The same measure for `CC(C)(C)OC(=O)NCC(N)=S`: 129 to 131 °C.
Turning to `CC(C(=O)O)c1ccc(CBr)cc1` (centres undefined), the melting point fell in the range of 123 to 128 °C.
To `CCOC(=O)c1ncn2c1CN(C)C(=O)c1cc(F)ccc1-2` belongs 202 °C.
The same measure for `COc1c(C)c2c(c(O)c1CC=C(C)CCC(=O)O)C(=O)OC2`: 141 °C; for `O=C(O)c1ccc2c(c1)CCO2`: 185 to 188 °C; for `Nc1cnc(N)c(Br)c1`: 117 to 122 °C.
`CC(C)(C)C(=O)Nc1ccncc1C(=O)O` showed a melting point of 250 to 254 °C.
The same measure for `COC(=O)C1C2CC3c4[nH]c5ccccc5c4CCN3CC2CC(OC(=O)c2cc(OC)c(OC)c(OC)c2)C1OC` (centres undefined): 230 °C.
In turn, `O=C(O)c1cccc(-c2ccccc2)c1O` registered a melting point of 186 °C.
The same measure for `CC(C)COC=O`: -95.8 °C; for `COc1cc(CO)cc(Cl)c1O`: 117 °C; for `O=C(Nc1ccccc1[N+](=O)[O-])C(C(F)(F)F)C(F)(F)F`: 156 °C.
To `Cc1ccc(NN=C2C(=O)NC(=S)NC2=O)cc1` belongs 305 °C; to `O=C(O)C(O)(c1ccccc1)C1CCCCC1` (centres undefined), 163 to 164 °C; to `O=C1c2ccccc2C(=O)N1c1ccccc1`, 210 °C.
To `OCCCCCCCCCCl` belongs 28 °C; to `CC(C)(C)[C@@H]1NC(=O)CNC1=O`, 300 °C.
Compound `C/C=C/Br` yielded a melting point of -77 °C.
In turn, `O=C(CBr)c1ccc2c(c1)OCCO2` displayed a melting point of 115 to 116 °C.
With `Cn1c(=O)c(C2=NNC(=O)C2=NNc2c(Br)cc([N+](=O)[O-])cc2[N+](=O)[O-])c(O)c2ccccc21`, the melting point is 192 °C.
To `OCC#CCO` belongs 56 °C; to `CCOC(=O)c1cc2c(N)c(C(=O)OCC)sc2nc1C(F)(F)F`, 181 to 183 °C; to `O=[N+]([O-])c1ccc(O)c([N+](=O)[O-])c1`, 116 °C.
The same measure for `COC(=O)c1ccc(NC(C)C)c(N)c1`: 104 to 106 °C; for `O=C(O)c1ccc(F)c(F)c1F`: 141 °C; for `CCOC(=O)c1cc(-c2ccco2)nn1C`: 57 to 58 °C.
With `CC1(C)OC(=O)C(=Cc2cccs2)C(=O)O1`, the melting point worked out at 182 °C.
The same measure for `Brc1ccc(OCc2ccccc2)cc1`: 62 °C.
The same measure for `OC(c1ccc(Cl)cc1)(c1ccc(Cl)cc1)c1ccc(Cl)cc1`: 95.5 °C; for `CC(=O)Oc1c(C)cc(OCC(O)CNC(C)C)c(C)c1C` (centres undefined): 106 °C.
`NC(=O)C[C@H](NC(=O)OCc1ccccc1)C(=O)O`: the melting point lay within 160 to 165 °C.
To `C/C=C/C(=O)N1C(=O)OC[C@@H]1C(C)C` belongs 56 °C; to `COc1ccc2occc2c1`, 31 to 33 °C.
To `Oc1c2cccc1Cc1cccc(c1O)Cc1cccc(c1O)Cc1cccc(c1O)Cc1cccc(c1O)Cc1cccc(c1O)C2` belongs 417 to 418 °C; to `CCCCCCCCCCCCCCCCCC(=O)OCCCC`, 27 °C.
Compound `O=P(O)(O)CCCCP(=O)(O)O` gave a melting point of 219 to 221 °C.
To `CCCCCCCCCCCS` belongs -3 °C; to `Cc1nc(Cl)nc(N)c1N`, 249 to 252 °C; to `O=C(O)CCOc1ccc(F)cc1`, 84 to 86 °C.
Compound `O=C(/C=C/c1ccc(Cl)cc1Cl)c1ccccc1` had a melting point of 72.3 °C.
The compound `N[C@@H](Cc1cc(I)c(O)c(I)c1)C(=O)O` displayed a melting point of 213 °C.
The same measure for `CC(C(O)c1ccccc1)N(C)CC=Cc1ccccc1` (centres undefined): 75 °C; for `COC(=O)c1cnc(SC)n1C`: 53 to 55 °C; for `COc1ccc2c3c(n(C)c2c1)CCCC3`: 96 °C.
The same measure for `ClCCN(CCCl)c1ccc2ccccc2c1`: 55 °C; for `N#CCC(=O)c1ccc(OC(F)(F)F)cc1`: 82 to 84 °C; for `Cn1cccc1-c1nnc(S)n1-c1ccc(Cl)cc1Cl`: 252 to 256 °C.
The same measure for `O=C(NC(Cc1ccccn1)C(=O)O)OCC1c2ccccc2-c2ccccc21` (centres undefined): 154 °C.
The compound `CCCC(C)(COC(N)=O)COC(=O)NC(C)C` (centres undefined) gave a melting point of 92 °C.
To `O=[N+]([O-])c1cccnc1NC1CC1` belongs 61 to 63 °C.
To `O=C(O)[C@@H]1CCCC[C@H]1C(=O)c1ccc(Cl)cc1` (relative stereo) belongs 157 to 161 °C.
To `C=CC(Cl)CCl` (centres undefined) belongs -61 °C; to `O=C(O)c1ccccc1OC(F)(F)F`, 79 °C.
`CCOC(=O)CC(=O)c1cccc([N+](=O)[O-])c1` showed a melting point of 75 to 77 °C.
On to `Nc1cccc([N+](=O)[O-])c1[N+](=O)[O-]`, for which the melting point was 122 °C.
Turning to `Cc1cc(CCl)nn1C`, the melting point was in the range of 63 to 66 °C.
To `CCCCC1CO1` (centres undefined) belongs 94 °C; to `O=C(O)CCc1ccc(CCC(=O)O)cc1`, 229 to 233 °C; to `Cc1c2cccc(-c3ccccc3)c2cc2c(-c3ccccc3)cccc12`, 177 °C.
The same measure for `O=C(O)C(=O)Nc1ccccc1`: 150 °C.
`NCCNCCNCCNCCN` gave a melting point of -30 °C.
In turn, `ClCC(Cl)(Cl)C(Cl)(Cl)Cl` registered a melting point of 26 °C.
`Nc1nc(SCc2ccc([N+](=O)[O-])cc2)c2ncn(C3OC(CO)C(O)C3O)c2n1` (centres undefined) returned a melting point of 203 to 205 °C.
The compound `NN1CCN(CCO)CC1` yielded a melting point of 102 to 107 °C.
To `CC(=O)c1ccc(C(C)=O)c([N+](=O)[O-])c1` belongs 46 °C; to `Cc1ccc(Cc2c(N)nn3c(C)cc(C)nc23)cc1`, 178 to 179 °C.
The same measure for `COc1ccsc1CN(C(=O)CCl)c1c(C)cccc1C`: 73 °C.
Consider `c1ccc(CNc2ccccc2-n2c(-c3ccccc3)nc3ccccc32)cc1`, for which the melting point was 160 °C.
Compound `C=Cc1ccc(Cl)cc1` displayed a melting point of 15.9 °C.
The same measure for `CC(C)Oc1ccc2c(=O)c(-c3ccccc3)coc2c1`: 115 °C; for `O=C(CCl)N[C@@H](Cc1ccc(O)cc1)C(=O)O`: 153 to 154 °C; for `Cc1cnc(N)c(I)c1`: 88 °C.
To `N#Cc1cc(Br)cc(Br)c1N` belongs 152 to 156 °C; to `O=[N+]([O-])c1ccc(-c2nnc3n2CN(c2ccc([N+](=O)[O-])cc2)CS3)cc1`, 320 °C.
`C1COCCOCCOCCOCCOCCO1`: the melting point worked out at 39 °C.
On to `c1ccc(Oc2nc(-c3ccccc3)nc3nc4ccccc4n23)cc1`, for which the melting point was 247 °C.
The same measure for `CCOC(=O)CC(=O)c1ccc([N+](=O)[O-])cc1`: 72 °C; for `Cn1sc(Cl)cc1=O`: 52 °C; for `COC(=O)c1cc2ccccc2s1`: 70 °C.
Take `COc1ccccc1N=Nc1ccccc1`: the melting point came to 41 °C.
To `C1CCCCCC2OC2CCCC1` (centres undefined) belongs -7 °C; to `N#Cc1ccc(CN2CCCCC2)cc1`, 38 to 40 °C; to `COc1nsc(N)n1`, 172 to 173 °C.
The same measure for `N#Cc1cc(F)ccc1[N+](=O)[O-]`: 103 °C; for `O=C(/C=C/c1ccc(Cl)c(Cl)c1)c1ccc2ccccc2c1`: 153 °C; for `Cc1nc([N+](=O)[O-])cn1-c1ccc([N+](=O)[O-])cc1`: 186 °C.
`O=C1/C(=N\O)C(c2ccc([N+](=O)[O-])cc2)=NN1c1ccccc1` displayed a melting point of 222 to 224 °C.
`O=C(/C(=N\Nc1cccc(O)c1)S(=O)(=O)c1ccccc1)c1ccc(Cl)cc1` gave a melting point of 125 °C.
`S=C=Nc1ccc(Br)cc1Cl` showed a melting point of 46 °C.
To `COC(=O)C1(S(=O)(=O)c2ccc(C)cc2)CC1` belongs 97.2 °C; to `NNC(=S)NCCc1ccccc1`, 112 to 114 °C.
On to `CC1(C)OC(=O)C(=Cc2ccc(Cl)cc2Cl)C(=O)O1`, for which the melting point came out at 156 °C.
The compound `CC(C)CI` returned a melting point of -93 °C.
The same measure for `CN1C(=O)Cc2cc(S(=O)(=O)Cl)ccc21`: 154 to 158 °C; for `CC12CC3CC(Br)(C1)CC(C(=O)O)(C3)C2` (centres undefined): 118 to 120 °C.
As to `CC(=NO)c1ccc(F)cc1`, the melting point was 72 to 74 °C.
`CSc1cc2c(c3c1CCOc1ccccc1-3)c(=O)n(-c1ccccc1)n2C` yielded a melting point of 176 °C.
`Cc1cc(O)c(Cc2c(O)cc(C)oc2=O)c(=O)o1`: the melting point was in the range of 248 to 250 °C.
As to `Cc1nn(C)c2ncc3c(=O)[nH]n(C)c3c12`, the melting point amounted to 300 °C.
To `O=C(O)CCc1ccccc1Br` belongs 96 to 98 °C; to `COc1ccc(C=CC(=O)c2ccc3ccccc3c2)cc1`, 92 to 95 °C.

The record behind these values is a melting point compilation (Tetko et al.).
